A short description of series [1]: Cytotoxicity assay towards THP-1-derived macrophages (MTT). It counts as cell-based, human. As to conditions: human, THP-1-derived macrophages (PMA-differentiated); for CC50 at 72 h: 72 h of treatment, uninfected cells, MTT. The procedure: (§1) Louis, MO, USA). The PMA-treated THP-1 cells were maintained in this condition for 24 h, followed by a 24 h of rest period after the removal of PMA. […] The cytotoxicity towards THP-1-derived macrophages was assessed after 24, 48 and 72 hours of incubation by MTT assay as described above. […] The percentage of viable cells was calculated from the Optical Density at 570 nm as follows: […]

In series [2] the test system is THP-1-derived macrophages. The description is as above. Type of series: cell-based, human. The protocol:
as §1

The test system of series [3] is L. infantum (LV50 and Drep-14) and L. major (Empa-12) promastigotes. Kind of series: MTT promastigote viability assay, stated across the three strains. Type of series: cell-based, Leishmania infantum, Leishmania major. Conditions: 72 h; for Effect on promastigote viability: three strains, at the tested concentrations; for IC50: Leishmania infantum, LV50, Drep-14, Empa-12, MTT, read-out: Promastigotes IC50, span over the three strains. An excerpt:
(§2) Three Tunisian laboratory strains already described ([Oualha et al., 2019]), originally isolated from distinct clinical manifestations were used in this study: (i) L. infantum LV50 MHOM/TN/94/LV50) strain originating from a bone marrow of a visceral leishmaniasis patient, (ii) L. infantum Drep-14 (MHOM/TN/96/Drep-14) strain isolated from a lesion of a sporadic cutaneous leishmaniasis patient and (iii) L. major Empa-12 (MHOM/TN/2012/Empa-12) strain isolated from a zoonotic cutaneous leishmaniasis patient. Stocks of these parasites obtained after passage through BALB/c mice were used as previously described ([Oualha et al., 2019]). Thawed cryopreserved parasites were cultured at 22°C in RPMI-1640/Glutamax medium (Gibco BRL, Germany) containing penicillin (100 U/mL) and streptomycin (100 μg/mL) supplemented with 10% heat-inactivated Fetal Bovine Serum (FBS) (Gibco BRL, Germany).
(§3) The effect of the selected compounds on the viability of Leishmania promastigotes was evaluated by a colorimetric MTT (3-(4,5-dimethylthiazol-2yl)-2,5-diphenyl tetrazolium bromide) assay. It consists in the reduction of tetrazolium salt to a […] crystal (blue formazan) by the succinate dehydrogenase activity of mitochondria in living cells, which can be quantified by spectrophotometry. Briefly, 90 μL of promastigotes (5 × 10^5 parasites/well) harvested from the stationary growth phase of each strain were added to a 96-well culture plate and incubated with 10 μL of a range of serial dilutions of the selected compounds in technical replicates (final concentration of 1% DMSO per well) ([Ioset et al., 2009]; [Harigua-Souiai et al., 2018]). […] After 72h of incubation at 22°C, 25 μl of MTT solution (5 mg/mL) was added to each well and incubated at 22°C for 4h. Then, 150 μl of DMSO was added to each well to dissolve the blue formazan and the optical density (OD) was measured at 570 nm with a microplate reader ([…], Labsystems). Promastigotes incubated in complete medium containing 1% DMSO were used as negative control. The standard anti-Leishmania drug, Amphotericin B was used as a positive control. All experiments were performed in two technical replicates and repeated three times in independent experiments. The mean percentage of promastigotes viability was calculated from the Optical Density at 570 nm as follows:
(§4) Promastigote viability (%)= [(ODcompound− ODblank)/(ODnegative control −ODblank)]*100
(§5) Results were expressed as the mean value of the percentage of promastigotes viability ± standard deviation (SD).

The subject of series [4] is L. infantum. The arrangement: method as in Gómez-Ochoa et al., 2009. As to conditions: 98 dogs naturally infected with L. infantum, 12-months follow-up; ref Gómez-Ochoa et al., 2009; cited from earlier work.
The test system of series [5] is L. infantum. The arrangement: method as in Cavalera et al., 2021. Conditions: dogs with leishmaniasis and chronic kidney disease; ref Cavalera et al., 2021; cited from earlier work.
Series [6] relates to multiple strains of L. donovani. Further details: method as in Pandharkar et al., 2014. Conditions: ref Pandharkar et al., 2014, read-out: IC50 in vitro; cited from earlier work.
The subject of series [7] is L. infantum LV50 promastigotes. Kind of series: MTT-based promastigote viability assay, L. infantum LV50. Conditions: Leishmania infantum, LV50, 72 h, MTT. Type of series: cell-based.
Excerpt: as §2, §3, §4, §5

In series [8] the test system is L. infantum Drep-14 promastigotes. Description: microbe, parasite or virus in culture. It counts as cell-based. As to conditions: Leishmania infantum, 72 h.
Excerpt: as §2, §3, §4, §5

The test system of series [9] is L. major Empa-12 promastigotes. Description: MTT-based promastigote viability assay, L. major Empa-12. Type of series: cell-based. As to conditions: Leishmania major, Empa-12, 72 h, MTT.
Excerpt: as §2, §3, §4, §5

The subject of series [10] is L. infantum LV50 intracellular amastigotes. Description: Anti-amastigote assay in THP-1-derived macrophages, L. infantum LV50. It counts as cell-based, Leishmania infantum. As to conditions: for Selectivity Index (SI): CC50 THP-1 / IC50 amastigotes LV50, 72 h; for IC50: Leishmania infantum, Macrophage, LV50, intramacrophage, 72 h. The procedure:
(§6) THP-1-derived macrophages (5 × 10^4/well) were seeded in each 8-well Labtek slides (Thermo Scientific). Adherent macrophages were obtained as described above, then infected with stationary phase promastigotes of each strain at a ratio 10:1 (10 parasites/macrophage) in RPMI medium containing penicillin (100 U/mL) and streptomycin (100 μg/mL) with 10% fetal bovine serum (Gibco, Brazil) at 37°C in 5% CO2 for 24 h. […] Non-infected control cells were incubated in a supplemented RPMI medium containing 1% DMSO. After 72h of incubation, cells were fixed and stained using May-Grunwald-Giemsa staining with RAL 555 Kit (RAL DIAGNOSTICS, France), following the manufacturer’s instructions. The percentage of infected cells and the total number of internalized parasites per 100 macrophages were determined under immersion oil (magnification of 1000X) using light microscopy. The percentage of amastigotes viability was expressed as the percentage of total number of internalized parasites within treated cells relative to the total number of internalized parasites within control cells treated with 1% DMSO, and calculated as follows:
(§7) Relative amastigote viability (%) = [(number of amastigotes/100 treated cells)/(number of amastigotes/100 treated cells with1% DMSO)] * 100
(§8) The relative percentage of amastigote viability was evaluated to calculate half inhibitory concentrations (IC50). The mean IC50 values were determined by plotting the curves of the logarithm of compound concentrations versus the relative amastigote viability of three independent experiments performed in two technical replicates for each compound fitted into a nonlinear regression model, using GraphPad Prism version 8.0.1. Selectivity Index (SI) values were calculated as the ratio between cytotoxicity and activity against amastigotes and determined for each compound as follows: SI= CC50/IC50.

Series [11] relates to L. infantum Drep-14 intracellular amastigotes. Kind of series: Anti-amastigote assay in THP-1-derived macrophages, L. infantum Drep-14. Type of series: cell-based, Leishmania infantum. As to conditions: for IC50: Leishmania infantum, Macrophage, Drep-14, intramacrophage, 72 h. The procedure:
as §6, §7, §8

In series [12] the test system is L. major Empa-12 intracellular amastigotes. Description: Anti-amastigote assay in THP-1-derived macrophages, L. major Empa-12. Type of series: cell-based, Leishmania major. As to conditions: for Selectivity Index (SI): CC50 THP-1 / IC50 amastigotes Empa-12, 72 h; for IC50: Leishmania major, Macrophage, Empa-12, intramacrophage, 72 h. The procedure: as §6, §7, §8

Series [13] concerns L. major and L. infantum amastigotes. Kind of series: Anti-amastigote assay, stated across the three strains. Type of series: cell-based, Leishmania infantum, Leishmania major. The protocol: as §6, §7, §8
In series [14] the test system is Leishmania (Viannia) braziliensis. Further details: method as in Cazorla et al., 2004. As to conditions: hamsters infected with Leishmania (Viannia) braziliensis, versus Glucantime; ref Cazorla et al., 2004; cited from earlier work.
Where [15] appears, read: read-out: THP-1-derived macrophages CC50.
Setting [16] is: read-out: THP-1-derived macrophages CC50 (in brackets) (converted).
Setting [17] is: read-out: Promastigotes IC50 (in brackets) (converted).
The mark [18] stands for this setting: read-out: Promastigotes IC50 (in brackets).
The mark [19] stands for this setting: read-out: Amastigotes IC50 (in brackets) (converted).

≈ marks a conversion by molar mass, not a printed value. Read-outs that look alike come from different tables or passages of the source.

Data on five compounds can be found in publication PMC11464777, “Approved drugs successfully repurposed against Leishmania based on machine learning predictions” (Frontiers in Cellular and Infection Microbiology, 2024).

What is called CC50 is the concentration at which the toxic effect on the cells reaches its halfway point. With `O=c1[nH]c2ccccc2n1CCCN1CCC(n2c(=O)[nH]c3cc(Cl)ccc32)CC1` [Domperidone], the results for the CC50 at 72 h in series [1] (setting [15]) and in series [1] (setting [16]) were 26.5 ± 2.6 µg/mL and 62.4 µM, respectively. Further, the “Concentration at which cytotoxic effects start” value in series [2] (24 h of incubation), in series [2] (48 h of incubation) and in series [2] (72 h of incubation) was 25000 ng/mL each time. Also, the “Effect on promastigote viability” value in series [3] is recorded as “dose-dependent decrease of parasite viability”. The “Clinical outcome in dogs” value in the series with L. infantum [4] was “effectively reduced clinical symptoms and antibody levels”. The “Serum markers in dogs” value in the series with L. infantum [5] is “improve serum creatinine and to reduce anti-L. infantum antibody titers, globulins, gamma globulins, and C-reactive protein (CRP)”.

The term IC50 denotes the concentration that inhibits the measured activity by half. As for `OC(Cn1cncn1)(Cn1cncn1)c1ccc(F)cc1F` [Fluconazole], the IC50 in series [6] was 140 ± 50 µM.

The term viability denotes the share of living cells, or the viability signal relative to a control. On to `CCCC(=O)Nc1ccc(OCC(O)CNC(C)C)c(C(C)=O)c1` (stereo not shown) [Acebutolol], for which the IC50 in series [7] (read-out: Promastigotes IC50) was 146 ± 16.4 µg/mL; in series [7] (setting [17]), 390 µM; in [8] (read-out: Promastigotes IC50), 69.3 ± 5.7 µg/mL; in series [8] (setting [18]), 186 µM; in series [9] (read-out: Promastigotes IC50), 103 ± 10.9 µg/mL; in series [9] (setting [17]), 276 µM. Further, the IC50 in series [10] (read-out: Amastigotes IC50) was 15.7 ± 2.75 µg/mL; in series [10] (setting [19]) it was 42.1 µM; in [11] (read-out: Amastigotes IC50) it was 13.8 ± 1.41 µg/mL; in series [11] (setting [19]), 37.1 µM; in series [12] (read-out: Amastigotes IC50), 22.3 ± 1.59 µg/mL; in series [12] (setting [19]) it was 59.8 µM. Besides, the IC50 in series [3] is 69.3 to 146 µg/mL (≈ 206 to 433 µM); in series [13] (72 h, LV50, Drep-14, Empa-12, intramacrophage, 72 h, read-out: Amastigotes IC50, span over the three strains) it was 13.8 to 66.8 µg/mL (≈ 41.1 to 199 µM). Also, the CC50 at 72 h in [1] (setting [15]) is more than 200 µg/mL; in series [1] (setting [16]) it was more than 536 µM. Besides, the viability at 72 h, 200 µg/mL in series [1] (at 200 µg/mL, 72 h, read-out: Macrophage viability) lay in the range of 90 to 100%. In [2] (24, 48, 72 h), the “Cytotoxicity on THP-1-derived macrophages” value is recorded as “no significant cytotoxicity”. For the same compound, the “Selectivity Index (SI)” value was more than 12.73 in series [10]; more than 14.45 in [11] (CC50 THP-1 / IC50 amastigotes Drep-14, 72 h); more than 8.98 in series [12]. In series [3], the “Effect on promastigote viability” value was “dose-dependent decrease of parasite viability”.

For the compound `CCN(CC)CCOC(=O)c1ccc(N)cc1` [Procaine], the “Efficacy of intralesional treatment in hamsters” value in series [14] is listed as “lower efficacy”.

With `CCCCOc1cc(C(=O)NCCN(CC)CC)c2ccccc2n1` [Dibucaine], the IC50 in series [7] (read-out: Promastigotes IC50) was 0.58 ± 0.02 µg/mL; in series [7] (setting [17]), 1.53 µM; in series [8] (read-out: Promastigotes IC50), 1.05 ± 0.06 µg/mL; in series [8] (setting [18]) it was 2.76 µM; in series [9] (read-out: Promastigotes IC50), 1.04 ± 0.09 µg/mL; in series [9] (setting [17]), 2.74 µM. Moreover, the IC50 in series [10] (read-out: Amastigotes IC50) was 0.71 ± 0.09 µg/mL; in [10] (setting [19]) it was 1.87 µM; in series [11] (read-out: Amastigotes IC50), 0.9 ± 0.03 µg/mL; in [11] (setting [19]), 2.37 µM; in series [12] (read-out: Amastigotes IC50) it was 0.83 ± 0.05 µg/mL; in [12] (setting [19]), 2.19 µM. Further, the IC50 in series [3] is 0.58 to 1.05 µg/mL (≈ 1.69 to 3.06 µM). Also, the CC50 at 72 h is 22.7 ± 1.08 µg/mL in series [1] (setting [15]) and 59.7 µM in series [1] (setting [16]). For the same compound, the “Concentration at which cytotoxic effects start” value in series [2] (24 h of incubation) amounted to 30000 ng/mL; in series [2] (48 h of incubation), 30000 ng/mL; in [2] (72 h of incubation), 15000 ng/mL. Besides, the figures for the “Selectivity Index (SI)” value in series [10] and in [12] were 31.97 and 27.35, respectively. Also, in [3], the “Effect on promastigote viability” value is “dose-dependent decrease of parasite viability”. In addition, the “Selectivity index (SI), span over strains” value in series [13] (CC50/IC50 amastigotes) is more than 25. Also, the “Efficacy of intralesional treatment in hamsters” value in [14] is reported as “comparable to the standard dosages of Glucantime”.
